{"source": "patent US7517857B2", "about": "“Immune-modulating peptide” (POSCO, priority 2002, dated 2009)", "format_in_all_cases": "cell-based", "key": {"FPR [1]": {"target": "T1, FPR (Homo sapiens, UniProt P21462)", "T1 construct": "expressed in transfected cells; host or cells: RBL-2H3 (rat basophilic leukemia) cells, G418-selected", "T1 sequence (P21462 1-350)": "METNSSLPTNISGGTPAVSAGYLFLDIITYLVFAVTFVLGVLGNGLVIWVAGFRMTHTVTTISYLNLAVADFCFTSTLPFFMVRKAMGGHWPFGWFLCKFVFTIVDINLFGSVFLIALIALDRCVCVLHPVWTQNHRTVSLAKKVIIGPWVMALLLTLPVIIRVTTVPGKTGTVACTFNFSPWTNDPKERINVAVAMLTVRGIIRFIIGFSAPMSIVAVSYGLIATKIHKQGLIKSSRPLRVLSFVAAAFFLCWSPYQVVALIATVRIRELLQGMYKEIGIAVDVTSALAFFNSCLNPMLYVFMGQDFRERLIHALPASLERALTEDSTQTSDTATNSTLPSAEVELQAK", "experiment": "ERK phosphorylation in FPR-expressing RBL-2H3 cells (immunoblot)", "conditions": "for ERKs phosphorylation/activation: 10 μM peptides 2 min (WKYMVm time course 1 μM)", "experimental": "Cultured RBL-2H3 cells were aliquoted into 2×10^6 cells and stimulated with the indicated concentrations of WKYMVm and the peptides of the present invention for the indicated lengths of time. FPR- or FPRL1-expressing RBL-2H3 cells were stimulated with 1 μM WKYMVm for various periods of time (FIG. 3A). Two cells were preincubated with a vehicle or 100 ng/ml of PTX (24 hr), 50 μM of LY294002 (15 min), 5 μM of GFX (15 min), 10 μM BAPTA/AM (60 min), or 50 μM PD98059 (60 min) prior to 1 μM of WKYMVm treatment (FIG. 3B). FPR- or FPRL1-expressing RBL2H3 cells were stimulated with 10 μM of the peptides of the present invention for 2 min or 5 min, respectively (FIG. 3C).\nAfter stimulation, the cells were washed with serum-free RPMI and lysed in a lysis buffer (20 mM Hepes, pH 7.2, 10% glycerol, 150 mM NaCl, 1% Triton X-100, 50 mM NaF, 1 mM Na3VO4, 10 μg/ml leupeptin, 10 μg/ml aprotinin, and 1 mM phenylmethylsulfonyl fluoride). The detergent-insoluble materials were pelleted by centrifugation (12,000×g, 15 min, at 4° C.), and the soluble supernatant fraction was removed and stored at −80° C. or used immediately. Protein concentrations in the lysates were determined using the Bradford protein assay reagent.\nEach sample ([…] of protein) was subjected to 10% SDS-PAGE and phosphorylated ERK was determined by an immunoblot analysis with an anti-phospho-ERK antibody. Protein samples were prepared for electrophoresis by addition of a concentrated sample buffer. The portions in the samples were then separated by an 10% SDS-polyacrylamide gel using the buffer system described by Laemmli (17).\nFollowing the electrophoresis, a western blot analysis with an anti-ERK2 antibody was performed to confirm that the same amounts of samples were used for the experiments. The proteins were blotted onto nitrocellulose membranes. The nitrocellulose membranes were then blocked by incubation with TBS (Tris-buffered saline, 0.05% Tween-20) containing 5% non-fat dry milk. Subsequently, the membranes were incubated with anti-phospho-ERK antibody, anti-phospho-Akt antibody or anti-Akt antibody washed with TBS. For a PKC translocation assay, an antibody for PKC isozyme-specific was incubated. Antigen-antibody complexes were visualized after incubating the membrane with a 1:5000 diluted goat anti-rabbit IgG or goat anti-mouse IgG antibody coupled to horseradish peroxidase and using the enhanced chemiluminescence detection system."}, "human neutrophils": {"system": "human neutrophils", "experiment": "Superoxide generation in human neutrophils (cytochrome c reduction)", "conditions": "for O^2− (nmol/10^6 cells), superoxide generation: cytochrome c reduction", "procedure,_shortened": "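Neutrophils isolated from donor leukocyte concentrates by dextran sedimentation, hypotonic erythrocyte lysis and lymphocyte separation gradient; 1×10^6 cells in RPMI 1640 preincubated 1 min at 37° C with 50 μM cytochrome c, then peptide added. Superoxide quantified as cytochrome c reduction, absorbance change at 550 nm over 5 min at 1-min intervals; ≥4 independent experiments.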"}, "FPR [2]": {"target": "T1, FPR", "experiment": "[Ca2+]i increase in FPR-expressing RBL-2H3 cells (fura-2)", "conditions": "for EC50 (nM), intracellular calcium increase: fura-2 loaded", "method": "FPR-expressing RBL-2H3 cells were stimulated with 10 μM of each peptide, and [Ca^2+]i was determined. The level of [Ca^2+]i was determined fluorometrically by Grynkiewicz's method using fura-2/AM (15). Briefly, prepared cells were incubated with 3 μM fura-2/AM at 37° C. for 50 min in a fresh serum-free RPMI 1640 medium under continuous stirring. 2×10^6 cells were aliquoted for each assay in Ca^2+-free Locke's solution (154 mM NaCl, 5.6 mM KCl, 1.2 mM MgCl2, 5 mM HEPES, pH 7.3, 10 mM glucose, and 0.2 mM EGTA). Fluorescence changes at the dual excitation wavelengths of 340 nm and 380 nm and the emission wavelength of 500 nm were measured, and the calibrated fluorescence ratio was translated into [Ca^2+]i. The peak level of the increased [Ca^2+]i was monitored."}}, "note": "Where a SMILES comes first, the peptide text is derived from it. Where no end group is shown, it is not given here. [ ]: non-standard residue; d: D form.", "data": [{"molecule": "CSCC[C@H](NC(=O)CNC(=O)[C@H](CCCCN)NC(=O)[C@@H](N)Cc1c[nH]c2ccccc12)C(=O)N[C@H](C(=O)N[C@H](CCSC)C(N)=O)C(C)C", "note": "[WKGMVm-NH2, Trp-Lys-Gly-Met-Val-D-Met-NH2] (H-WKGMV[dM]-NH2; N-terminus assumed)", "values": [{"measurement": "ERKs phosphorylation/activation", "setting": "FPR [1]", "result": "stimulated ERKs phosphorylation"}, {"measurement": "O^2− (nmol/10^6 cells), superoxide generation", "setting": "human neutrophils; peptide 100 nM", "result": "14.2 ± 3.42", "unit": "nmol/10^6 cells"}, {"measurement": "O^2− (nmol/10^6 cells), superoxide generation", "setting": "human neutrophils; peptide 10 μM", "result": "37.6 ± 4.57", "unit": "nmol/10^6 cells"}, {"measurement": "[Ca^2+]i increasing activity", "setting": "FPR [2]", "result": "did not effect a [Ca^2+]i increase until 20 μM treatment"}, {"measurement": "EC50 (nM), intracellular calcium increase", "setting": "FPR [2]", "result": "inactive"}]}, {"molecule": "CSCC[C@H](NC(=O)[C@H](CCCNC(=N)N)NC(=O)[C@H](CCCCN)NC(=O)[C@@H](N)Cc1c[nH]c2ccccc12)C(=O)N[C@H](C(=O)N[C@H](CCSC)C(N)=O)C(C)C", "note": "[WKRMVm-NH2, Trp-Lys-Arg-Met-Val-D-Met-NH2] (H-WKRMV[dM]-NH2; N-terminus assumed)", "values": [{"measurement": "ERKs phosphorylation/activation", "setting": "FPR [1]", "result": "stimulated ERKs phosphorylation"}, {"measurement": "O^2− (nmol/10^6 cells), superoxide generation", "setting": "human neutrophils; peptide 100 nM", "result": "15.9 ± 2.48", "unit": "nmol/10^6 cells"}, {"measurement": "O^2− (nmol/10^6 cells), superoxide generation", "setting": "human neutrophils; peptide 10 μM", "result": "41.7 ± 8.32", "unit": "nmol/10^6 cells"}, {"measurement": "EC50 (nM), intracellular calcium increase", "setting": "FPR [2]", "result": "inactive"}]}, {"molecule": "CSCC[C@H](NC(=O)[C@H](Cc1ccc(O)cc1)NC(=O)[C@H](CCCCN)NC(=O)[C@@H](N)Cc1c[nH]c2ccccc12)C(=O)N[C@H](C(=O)N[C@H](CCSC)C(N)=O)C(C)C", "note": "[WKYMVm-NH2, Trp-Lys-Tyr-Met-Val-D-Met-NH2, reference compound]", "values": [{"measurement": "time of maximal ERKs activity after peptide treatment", "setting": "FPR [1]; 1 μM WKYMVm", "result": 2, "unit": "min"}, {"measurement": "ERKs phosphorylation/activation", "setting": "FPR [1]", "result": "induced transient activation of ERKs"}, {"measurement": "concentration showing the maximal activity on superoxide generation", "setting": "human neutrophils; data not shown", "result": 100, "unit": "nM"}, {"measurement": "O^2− (nmol/10^6 cells), superoxide generation", "setting": "human neutrophils; peptide 100 nM", "result": "37.3 ± 6.94", "unit": "nmol/10^6 cells"}, {"measurement": "O^2− (nmol/10^6 cells), superoxide generation", "setting": "human neutrophils; peptide 100 nM, listed as wkymvm-NH2", "result": 0, "unit": "nmol/10^6 cells"}, {"measurement": "O^2− (nmol/10^6 cells), superoxide generation", "setting": "human neutrophils; peptide 10 μM", "result": "39.0 ± 3.58", "unit": "nmol/10^6 cells"}, {"measurement": "O^2− (nmol/10^6 cells), superoxide generation", "setting": "human neutrophils; peptide 10 μM, listed as wkymvm-NH2", "result": 0, "unit": "nmol/10^6 cells"}, {"measurement": "concentration showing maximal [Ca^2+]i increase activity", "setting": "FPR [2]; data not shown", "result": "around 300 nM"}, {"measurement": "EC50 (nM), intracellular calcium increase", "setting": "FPR [2]", "result": "inactive"}]}, {"molecule": "WKYMVE-NH2 [WKYMVE-NH2, Trp-Lys-Tyr-Met-Val-Glu-NH2]", "values": [{"measurement": "ERKs phosphorylation/activation", "setting": "FPR [1]", "result": "stimulated ERKs phosphorylation"}, {"measurement": "O^2− (nmol/10^6 cells), superoxide generation", "setting": "human neutrophils; peptide 100 nM", "result": "5.0 ± 0.43", "unit": "nmol/10^6 cells"}, {"measurement": "O^2− (nmol/10^6 cells), superoxide generation", "setting": "human neutrophils; peptide 10 μM", "result": "33.6 ± 6.43", "unit": "nmol/10^6 cells"}, {"measurement": "EC50 (nM), intracellular calcium increase", "setting": "FPR [2]", "result": "inactive"}]}, {"molecule": "WKYMVR-NH2 [WKYMVR-NH2, Trp-Lys-Tyr-Met-Val-Arg-NH2]", "values": [{"measurement": "ERKs phosphorylation/activation", "setting": "FPR [1]", "result": "stimulated ERKs phosphorylation"}, {"measurement": "O^2− (nmol/10^6 cells), superoxide generation", "setting": "human neutrophils; peptide 100 nM", "result": "16.3 ± 1.57", "unit": "nmol/10^6 cells"}, {"measurement": "O^2− (nmol/10^6 cells), superoxide generation", "setting": "human neutrophils; peptide 10 μM", "result": "44.8 ± 3.65", "unit": "nmol/10^6 cells"}, {"measurement": "EC50 (nM), intracellular calcium increase", "setting": "FPR [2]", "result": "inactive"}]}]}
